According to patent US20230102860A1, “METHOD FOR C[…] FUNGICIDE-RESISTANT SOYBEAN RUST FUNGI” (SUMITOMO CHEMICAL COMPANY, LIMITED, priority 2020, published 2023):

Tested on: soybean rust fungus (Phakopsora pachyrhizi) having an amino acid substitution of F129L on mitochondrial cytochrome b protein
Experiment: Comparative Test Example 1: soybean leaf disk test at 50 ppm or 12.5 ppm, lesion area (Table A, Table B)
Format: in vivo
Procedure: A soybean leaf (cv; Kurosengoku) was punched out to 1 cm diameter to prepare a leaf disk. Each 1 mL of 1.2% agar medium was dispensed in 24 well microplate. A piece of the leaf disk was placed on each well. To a mixture of 0.5 μL of Sorpol (registered trademark) 1200KX, 4.5 μL of DMSO, and 5 μL of xylene was added 20 μL of a DMSO solution containing 10,000 ppm of the test compound. The resulting mixture was diluted with ion exchange water to prepare a spray solution containing a predetermined concentration of the test compound. The spray solution was sprayed in 10 μL per one leaf disk. After 1 day, an aqueous suspension of spores of soybean rust fungus (Phakopsora pachyrhizi) having an amino acid substitution of F129L on mitochondrial cytochrome b protein (1.0×10^5/mL) was inoculated onto the leaf disks. After the inoculation, the microplate was placed in a growth chamber (light on for 6 hours, light off for 18 hours, 23° C. temperature, 60% humidity). After 1 day, the leaf disks were air-dried to disappear water droplets on the surface of the leaf disk, and the microplate was placed again in the growth chamber for 10 to 14 days. Thereafter, a lesion area of soybean rust disease was assessed. […] Here the untreated means that the spray solution containing the test compound was not sprayed onto the leaf disk.
The test was conducted by using as a test compound the present compound 3, 5, 11, 59, 200, 202, 207, 214, 222, 294 or 391, or azoxystrobin, dimoxystrobin or metominostrobin, at the predetermined concentration of 50 ppm or 12.5 ppm according to a method described in the Test Example 1. The results thereof are indicated in [Table A] and [Table B].

SMILES	Lesion Area at each concentration (%) (12.5 ppm)	Lesion Area at each concentration (%) (50 ppm)
CO/C=C(/C(=O)OC)c1ccccc1/C=C/C1CC1C (stereo not shown)	0	0
CO/C=C(/C(=O)OC)c1ccccc1/C=C/C1CC1(F)F (stereo not shown)	0	0
CCc1ccc(/C(=C\OC)C(=O)OC)c(/C=C/C2CC2)c1	0	0
CO/C=C(/C(=O)OC)c1ccc(Cl)cc1/C=C/C1CC1(C)C (stereo not shown)	0	0
CCCCC#Cc1cc(Cl)ccc1/C(=C\OC)C(=O)OC	0	0
CO/C=C(/C(=O)OC)c1ccc(Cl)cc1C#CCC(C)C	0	0
CO/C=C(/C(=O)OC)c1ccc(OC)cc1C#CCC(C)C	0	0
CO/C=C(/C(=O)OC)c1ccc(Cl)cc1C#CCC1CCCC1	0	0
CO/C=C(/C(=O)OC)c1ccccc1COc1ccn(-c2ccc(Cl)cc2)n1	10	0
CNC(=O)/C(=N/OC)c1ccccc1COc1ccn(-c2ccc(Cl)cc2)n1	10	0
CO/C=C(/C(=O)OC)c1c(C)cccc1CO/N=C(\C)c1ccc(Cl)cc1	0	0
CO/C=C(/C(=O)OC)c1ccccc1Oc1cc(Oc2ccccc2C#N)ncn1	100	100
CNC(=O)/C(=N/OC)c1ccccc1COc1cc(C)ccc1C	100	100
CNC(=O)/C(=N/OC)c1ccccc1Oc1ccccc1	100	100
